Measurements: ChEMBL document CHEMBL1139272, “Beyond the MEK-pocket: can current MEK kinase inhibitors be utilized to synthesize novel type III NCKIs? Does the MEK-pocket exist in kinases other than MEK?” (Bioorg Med Chem Lett, 2009)
pIC50: −log10 of the molar value.

Key:
[1] = target: Dual specificity protein kinase CLK1 (Homo sapiens, UniProt P49759); assay: Binding affinity to CLK1
[2] = target: Proto-oncogene tyrosine-protein kinase Src (Homo sapiens, UniProt P12931); assay: Binding affinity to SRC
Ephrin type-A receptor 2 [3] = target: T1, Ephrin type-A receptor 2 (Homo sapiens, UniProt P29317); assay: Binding affinity to ECK
[4] = target: Tyrosine-protein kinase ABL1 (Homo sapiens, UniProt P00519); assay: Binding affinity to ABL
[5] = target: Tyrosine-protein kinase BTK (Homo sapiens, UniProt Q06187)
Aurora kinase A = target: T2, Aurora kinase A (Homo sapiens, UniProt O14965); assay: Binding affinity to Aurora A
T2 sequence (O14965 whole entry): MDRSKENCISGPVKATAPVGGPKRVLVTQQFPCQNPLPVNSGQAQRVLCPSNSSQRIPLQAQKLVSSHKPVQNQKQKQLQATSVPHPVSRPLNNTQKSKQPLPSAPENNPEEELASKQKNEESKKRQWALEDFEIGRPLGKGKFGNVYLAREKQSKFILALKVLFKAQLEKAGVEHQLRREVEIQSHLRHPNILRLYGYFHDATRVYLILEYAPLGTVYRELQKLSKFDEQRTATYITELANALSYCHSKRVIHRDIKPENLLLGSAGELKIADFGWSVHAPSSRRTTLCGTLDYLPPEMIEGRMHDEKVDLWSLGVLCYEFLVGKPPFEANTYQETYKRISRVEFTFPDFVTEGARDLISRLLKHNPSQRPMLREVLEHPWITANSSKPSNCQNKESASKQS

[6] = target: Protein kinase C beta type (Homo sapiens, UniProt P05771); assay: Binding affinity to PKC beta2
[7] = target: Vascular endothelial growth factor receptor 2 (Homo sapiens, UniProt P35968); assay: Binding affinity to VEGFR2
[8] = target: Fibroblast growth factor receptor 1 (Homo sapiens, UniProt P11362); assay: Binding affinity to FGFR1
[9] = Binding affinity to p38
[10] = target: T3, Serine/threonine-protein kinase Sgk1 (Homo sapiens) (UniProt O00141); assay: Binding affinity to SGK at 10 uM
T3 sequence (whole entry): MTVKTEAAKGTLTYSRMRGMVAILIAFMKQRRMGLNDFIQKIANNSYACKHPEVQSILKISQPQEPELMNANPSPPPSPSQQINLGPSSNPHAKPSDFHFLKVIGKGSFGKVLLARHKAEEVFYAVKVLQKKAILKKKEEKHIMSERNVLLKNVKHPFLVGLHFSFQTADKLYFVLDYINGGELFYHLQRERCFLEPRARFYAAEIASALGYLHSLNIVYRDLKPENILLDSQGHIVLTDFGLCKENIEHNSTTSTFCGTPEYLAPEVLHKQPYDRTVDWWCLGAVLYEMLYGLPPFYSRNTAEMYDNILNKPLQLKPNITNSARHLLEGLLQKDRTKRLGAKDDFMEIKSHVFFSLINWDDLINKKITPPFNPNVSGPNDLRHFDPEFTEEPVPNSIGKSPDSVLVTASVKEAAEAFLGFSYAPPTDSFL

[11] = Binding affinity to NEK at 10 uM
[12] = target: High affinity nerve growth factor receptor (Homo sapiens) (UniProt P04629); assay: Binding affinity to TrkA at 10 uM
[13] = Binding affinity to PKC at 10 uM
[14] = Binding affinity to GSK3 at 10 uM
Ephrin type-A receptor 2 [15] = target: T1, Ephrin type-A receptor 2; assay: Binding affinity to EPHA2 at 10 uM
[16] = target: MAP kinase-activated protein kinase 2 (Homo sapiens) (UniProt P49137); assay: Binding affinity to MK2 at 10 uM
[17] = Binding affinity to p38 at 10 uM
[18] = target: Serine/threonine-protein kinase PAK 4 (Homo sapiens) (UniProt O96013); assay: Binding affinity to PAK4 at 10 uM
[19] = target: T4, Aurora kinase A (Homo sapiens) (UniProt O14965); assay: Binding affinity to Aurora A at 10 uM
T4 sequence (whole entry): T2 sequence (O14965 whole entry)

[20] = Binding affinity to MEK
[21] = target: Tyrosine-protein kinase Lck (Homo sapiens, UniProt P06239)
[22] = target: Mitogen-activated protein kinase kinase kinase 9 (Homo sapiens, UniProt P80192); assay: Binding affinity to MAP3K9
[23] = target: T5, Serine/threonine-protein kinase 3 (Homo sapiens, UniProt Q13188)
T5 sequence (Q13188 whole entry): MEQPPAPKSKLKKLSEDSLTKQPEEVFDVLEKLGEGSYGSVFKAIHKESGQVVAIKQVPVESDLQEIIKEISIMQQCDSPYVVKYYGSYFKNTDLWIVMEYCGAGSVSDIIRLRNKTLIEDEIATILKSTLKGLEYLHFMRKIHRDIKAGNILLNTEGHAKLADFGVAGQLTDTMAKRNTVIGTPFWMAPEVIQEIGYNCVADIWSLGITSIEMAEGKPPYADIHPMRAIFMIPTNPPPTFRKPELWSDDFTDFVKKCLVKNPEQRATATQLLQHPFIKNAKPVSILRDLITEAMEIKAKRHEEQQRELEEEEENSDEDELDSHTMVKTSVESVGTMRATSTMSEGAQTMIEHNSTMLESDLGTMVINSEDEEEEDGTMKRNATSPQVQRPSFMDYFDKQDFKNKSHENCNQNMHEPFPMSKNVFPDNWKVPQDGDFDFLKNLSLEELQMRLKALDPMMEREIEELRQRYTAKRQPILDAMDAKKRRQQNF

Vascular endothelial growth factor receptor 2, sequence (P35968 whole entry): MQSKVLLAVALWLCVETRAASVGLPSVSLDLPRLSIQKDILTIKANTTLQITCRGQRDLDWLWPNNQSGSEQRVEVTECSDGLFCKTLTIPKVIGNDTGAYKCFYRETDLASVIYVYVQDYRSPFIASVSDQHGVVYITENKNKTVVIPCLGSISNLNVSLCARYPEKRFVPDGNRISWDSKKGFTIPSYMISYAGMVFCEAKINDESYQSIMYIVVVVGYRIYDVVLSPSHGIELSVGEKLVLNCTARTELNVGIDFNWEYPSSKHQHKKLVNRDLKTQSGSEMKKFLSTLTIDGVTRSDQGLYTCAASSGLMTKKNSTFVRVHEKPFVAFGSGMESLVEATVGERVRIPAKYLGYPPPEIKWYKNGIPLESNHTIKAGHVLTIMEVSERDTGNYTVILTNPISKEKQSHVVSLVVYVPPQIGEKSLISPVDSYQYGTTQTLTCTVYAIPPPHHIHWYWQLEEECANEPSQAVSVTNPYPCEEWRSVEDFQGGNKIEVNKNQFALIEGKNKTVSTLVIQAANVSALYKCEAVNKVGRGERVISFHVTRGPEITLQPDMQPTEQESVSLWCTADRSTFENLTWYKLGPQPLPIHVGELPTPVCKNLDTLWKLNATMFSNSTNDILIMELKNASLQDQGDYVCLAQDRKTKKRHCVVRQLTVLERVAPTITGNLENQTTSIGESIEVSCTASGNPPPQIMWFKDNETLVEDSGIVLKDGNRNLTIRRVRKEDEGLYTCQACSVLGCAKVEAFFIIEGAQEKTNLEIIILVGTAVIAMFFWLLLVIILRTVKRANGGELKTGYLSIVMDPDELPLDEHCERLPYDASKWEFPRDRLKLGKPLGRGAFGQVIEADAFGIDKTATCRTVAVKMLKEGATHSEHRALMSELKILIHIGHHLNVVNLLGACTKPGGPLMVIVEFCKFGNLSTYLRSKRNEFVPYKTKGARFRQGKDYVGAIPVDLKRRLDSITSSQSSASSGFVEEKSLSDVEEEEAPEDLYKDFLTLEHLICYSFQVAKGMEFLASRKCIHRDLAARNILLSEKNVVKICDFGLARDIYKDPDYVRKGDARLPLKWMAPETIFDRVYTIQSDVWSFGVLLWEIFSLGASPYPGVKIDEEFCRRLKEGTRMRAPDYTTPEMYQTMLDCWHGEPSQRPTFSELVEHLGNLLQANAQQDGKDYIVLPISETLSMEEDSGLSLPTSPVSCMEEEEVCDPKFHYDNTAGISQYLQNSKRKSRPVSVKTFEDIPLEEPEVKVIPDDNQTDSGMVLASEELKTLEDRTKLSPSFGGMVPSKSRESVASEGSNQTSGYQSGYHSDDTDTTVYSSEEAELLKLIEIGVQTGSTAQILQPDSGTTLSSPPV
MAP kinase-activated protein kinase 2 (Homo sapiens), sequence (P49137 whole entry, looked up): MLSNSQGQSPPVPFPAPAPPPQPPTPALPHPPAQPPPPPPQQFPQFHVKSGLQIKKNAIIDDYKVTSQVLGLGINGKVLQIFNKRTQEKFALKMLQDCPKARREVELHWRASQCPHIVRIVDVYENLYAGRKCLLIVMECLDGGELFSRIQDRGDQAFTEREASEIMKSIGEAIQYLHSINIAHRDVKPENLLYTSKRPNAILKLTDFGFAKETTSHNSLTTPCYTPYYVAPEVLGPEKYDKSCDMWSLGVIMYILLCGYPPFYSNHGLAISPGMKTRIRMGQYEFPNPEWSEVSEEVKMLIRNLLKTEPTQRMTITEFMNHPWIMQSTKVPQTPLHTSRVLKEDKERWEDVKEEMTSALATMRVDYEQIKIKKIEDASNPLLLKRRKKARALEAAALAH
Tyrosine-protein kinase BTK, sequence (Q06187 whole entry): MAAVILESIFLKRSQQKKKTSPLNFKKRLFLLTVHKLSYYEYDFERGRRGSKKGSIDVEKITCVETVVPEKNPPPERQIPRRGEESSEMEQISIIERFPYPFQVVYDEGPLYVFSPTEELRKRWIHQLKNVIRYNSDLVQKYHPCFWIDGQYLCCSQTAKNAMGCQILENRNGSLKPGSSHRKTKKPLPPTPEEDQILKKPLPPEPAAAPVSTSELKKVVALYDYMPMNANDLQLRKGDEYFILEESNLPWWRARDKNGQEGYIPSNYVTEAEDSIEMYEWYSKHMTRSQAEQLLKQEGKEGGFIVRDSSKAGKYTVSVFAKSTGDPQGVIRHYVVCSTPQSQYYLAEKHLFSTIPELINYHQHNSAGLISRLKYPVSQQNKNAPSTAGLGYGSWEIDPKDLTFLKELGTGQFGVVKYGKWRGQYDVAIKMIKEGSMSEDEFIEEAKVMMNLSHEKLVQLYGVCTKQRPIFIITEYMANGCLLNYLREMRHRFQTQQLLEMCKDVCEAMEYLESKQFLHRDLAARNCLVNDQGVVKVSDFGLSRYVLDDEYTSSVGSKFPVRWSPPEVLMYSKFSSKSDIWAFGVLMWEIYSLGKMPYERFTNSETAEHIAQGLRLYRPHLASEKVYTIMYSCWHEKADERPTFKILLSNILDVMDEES
Tyrosine-protein kinase ABL1, sequence (P00519 whole entry): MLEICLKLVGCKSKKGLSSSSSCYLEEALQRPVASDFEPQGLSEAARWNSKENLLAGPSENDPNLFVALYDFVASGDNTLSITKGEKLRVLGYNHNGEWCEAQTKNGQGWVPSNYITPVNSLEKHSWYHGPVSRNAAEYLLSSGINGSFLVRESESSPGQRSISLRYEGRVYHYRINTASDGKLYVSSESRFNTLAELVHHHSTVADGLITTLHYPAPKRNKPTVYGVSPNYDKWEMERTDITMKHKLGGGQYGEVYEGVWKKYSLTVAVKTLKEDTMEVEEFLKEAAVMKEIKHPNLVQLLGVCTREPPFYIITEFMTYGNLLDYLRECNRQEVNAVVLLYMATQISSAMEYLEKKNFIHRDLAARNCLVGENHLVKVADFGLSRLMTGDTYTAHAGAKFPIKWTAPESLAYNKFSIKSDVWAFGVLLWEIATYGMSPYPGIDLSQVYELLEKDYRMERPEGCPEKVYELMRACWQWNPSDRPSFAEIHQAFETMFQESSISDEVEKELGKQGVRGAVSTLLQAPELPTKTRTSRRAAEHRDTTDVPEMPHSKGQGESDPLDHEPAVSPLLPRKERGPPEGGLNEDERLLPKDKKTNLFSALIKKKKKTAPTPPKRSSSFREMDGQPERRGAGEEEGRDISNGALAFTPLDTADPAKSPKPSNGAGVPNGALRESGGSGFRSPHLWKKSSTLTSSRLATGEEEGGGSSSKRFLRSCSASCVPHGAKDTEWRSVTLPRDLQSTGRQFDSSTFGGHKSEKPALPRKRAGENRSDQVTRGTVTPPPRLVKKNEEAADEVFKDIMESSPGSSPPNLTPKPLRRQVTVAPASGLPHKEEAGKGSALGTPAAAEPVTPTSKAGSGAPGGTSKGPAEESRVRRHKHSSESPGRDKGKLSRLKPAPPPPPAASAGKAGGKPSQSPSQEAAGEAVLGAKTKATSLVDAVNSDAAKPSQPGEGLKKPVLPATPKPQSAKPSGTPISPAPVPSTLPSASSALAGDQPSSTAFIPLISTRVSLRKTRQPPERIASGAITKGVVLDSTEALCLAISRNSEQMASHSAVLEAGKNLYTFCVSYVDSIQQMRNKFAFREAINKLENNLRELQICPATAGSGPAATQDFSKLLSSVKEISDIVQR
Serine/threonine-protein kinase PAK 4 (Homo sapiens), sequence (O96013 whole entry, looked up): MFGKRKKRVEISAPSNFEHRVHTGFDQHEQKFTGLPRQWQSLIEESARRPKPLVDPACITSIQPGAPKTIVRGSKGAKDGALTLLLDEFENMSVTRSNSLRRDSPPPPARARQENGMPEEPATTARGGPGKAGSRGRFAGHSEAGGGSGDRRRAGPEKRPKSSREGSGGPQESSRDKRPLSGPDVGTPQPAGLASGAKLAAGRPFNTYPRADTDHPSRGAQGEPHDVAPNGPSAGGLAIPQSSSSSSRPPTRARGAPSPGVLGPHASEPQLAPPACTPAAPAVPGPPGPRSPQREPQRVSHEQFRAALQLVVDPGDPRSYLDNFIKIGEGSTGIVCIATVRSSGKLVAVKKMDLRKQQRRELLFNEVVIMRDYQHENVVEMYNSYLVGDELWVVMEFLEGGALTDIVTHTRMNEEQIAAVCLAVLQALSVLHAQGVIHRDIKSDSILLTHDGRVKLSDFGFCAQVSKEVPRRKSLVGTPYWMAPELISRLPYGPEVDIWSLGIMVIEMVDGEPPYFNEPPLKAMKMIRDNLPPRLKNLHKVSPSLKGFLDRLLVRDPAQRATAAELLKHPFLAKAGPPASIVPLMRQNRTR
Protein kinase C beta type, sequence (P05771 whole entry): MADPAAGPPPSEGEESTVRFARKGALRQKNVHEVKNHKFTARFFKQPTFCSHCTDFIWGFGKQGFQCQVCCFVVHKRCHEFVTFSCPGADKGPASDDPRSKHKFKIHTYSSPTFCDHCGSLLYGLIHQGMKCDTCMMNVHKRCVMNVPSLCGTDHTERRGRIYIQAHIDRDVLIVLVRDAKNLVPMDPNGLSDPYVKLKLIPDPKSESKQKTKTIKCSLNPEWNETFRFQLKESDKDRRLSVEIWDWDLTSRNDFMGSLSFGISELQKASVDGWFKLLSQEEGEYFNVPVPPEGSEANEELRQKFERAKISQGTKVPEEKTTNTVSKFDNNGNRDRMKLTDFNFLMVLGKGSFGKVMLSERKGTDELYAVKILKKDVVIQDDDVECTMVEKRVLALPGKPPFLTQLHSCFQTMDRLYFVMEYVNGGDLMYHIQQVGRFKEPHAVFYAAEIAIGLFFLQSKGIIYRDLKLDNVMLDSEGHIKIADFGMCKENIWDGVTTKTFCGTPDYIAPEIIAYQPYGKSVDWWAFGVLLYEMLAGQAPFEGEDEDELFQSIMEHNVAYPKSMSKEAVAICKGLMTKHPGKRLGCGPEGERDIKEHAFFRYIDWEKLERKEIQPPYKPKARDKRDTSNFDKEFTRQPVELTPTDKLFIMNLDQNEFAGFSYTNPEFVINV

In the case of `O=C(CS(=O)(=O)c1ccc(Cl)cc1)N/N=C/c1cc(C(=O)O)c(Nc2ccc(I)cc2F)c(F)c1F`, the pIC50 [1] was 5.52, the pIC50 [2] was 5.52 and the pIC50 (Ephrin type-A receptor 2 [3]) was under 4.52. It also gave a pIC50 [4] of 5.40, a pIC50 [5] of under 4.52 and a pIC50 (Aurora kinase A) of 5.40. The pIC50 [6] was under 4.52, the pIC50 [7] was under 4.52 and the pIC50 [8] was under 4.52. It also gave a pIC50 [9] of 5.00.

Compound `O=C(NOCCO)c1ccc(F)c(F)c1Nc1ccc(I)cc1F` has an inhibition [10] of 0%, an inhibition [11] of 2% and an inhibition [12] of 14%. The inhibition [13] was 9%, the inhibition [14] was 0% and the inhibition (Ephrin type-A receptor 2 [15]) was 9%. It also gave an inhibition [16] of 9%, an inhibition [17] of 5% and an inhibition [18] of 10%. For the same compound, the inhibition [19] was 11%.

Compound `O=C(NOCCO)c1cc(COCCO)c(F)c(F)c1Nc1ccc(I)cc1F` has an inhibition [10] of 0%, an inhibition [11] of 13% and an inhibition [12] of 27%. It also gave an inhibition [13] of 0%, an inhibition [14] of 25% and an inhibition (Ephrin type-A receptor 2 [15]) of 13%. It also gave an inhibition [16] of 5%, an inhibition [17] of 5% and an inhibition [18] of 22%. The inhibition [19] was 2%.

With `O=C(O)c1ccc(CO/N=C/c2cc(C(=O)NOCCO)c(Nc3ccc(I)cc3F)c(F)c2F)o1` the inhibition [10] was 60%, the inhibition [11] was 20% and the inhibition [12] was 0%. It also gave an inhibition [13] of 27%, an inhibition [14] of 36% and an inhibition (Ephrin type-A receptor 2 [15]) of 22%. The inhibition [16] was 28%, the inhibition [17] was 19% and the inhibition [18] was 28%. The inhibition [19] was 21%.

Work on `Cc1cc(I)ccc1Nc1c(C(=O)O)ccc(F)c1F` yielded a pIC50 [20] of 7.96.

In the case of `NC(=O)C[C@H](N)C(=O)NCc1cc(C(=O)O)c(Nc2ccc(I)cc2F)c(F)c1F`, the pIC50 [1] was under 4.52, the pIC50 [21] was under 4.52 and the pIC50 [2] was 5.40. For the same compound, the pIC50 (Ephrin type-A receptor 2 [3]) was under 4.52, the pIC50 [4] was under 4.52 and the pIC50 [5] was under 4.52. The pIC50 [22] was under 4.52, the pIC50 [23] was 5.22 and the pIC50 (Aurora kinase A) was 5.70. It also gave a pIC50 [6] of 5.70, a pIC50 [7] of under 4.52 and a pIC50 [8] of under 4.52. For the same compound, the pIC50 [9] was under 4.52.

With `COCCCNC(=O)N/N=C/c1cc(C(=O)NOCCO)c(Nc2ccc(I)cc2F)c(F)c1F` the inhibition [10] was 0%, the inhibition [11] was 0% and the inhibition [12] was 0%. For the same compound, the inhibition [13] was 10%, the inhibition [14] was 16% and the inhibition (Ephrin type-A receptor 2 [15]) was 7%. It also gave an inhibition [16] of 1%, an inhibition [17] of 31% and an inhibition [18] of 0%. The inhibition [19] was 0%.

For `O=C(NOCCO)c1cc(/C=N/OCCO)c(F)c(F)c1Nc1ccc(I)cc1F`, the inhibition [10] was 0%, the inhibition [11] was 0% and the inhibition [12] was 0%. For the same compound, the inhibition [13] was 1%, the inhibition [14] was 5% and the inhibition (Ephrin type-A receptor 2 [15]) was 9%. For the same compound, the inhibition [16] was 2%, the inhibition [17] was 1% and the inhibition [18] was 0%. The inhibition [19] was 5%.

`O=C(O)CCCO/N=C/c1cc(C(=O)NOCCO)c(Nc2ccc(I)cc2F)c(F)c1F` showed an inhibition [10] of 39%, an inhibition [11] of 25% and an inhibition [12] of 1%. The inhibition [13] was 25%, the inhibition [14] was 22% and the inhibition (Ephrin type-A receptor 2 [15]) was 37%. The inhibition [16] was 18%, the inhibition [17] was 4% and the inhibition [18] was 33%. The inhibition [19] was 29%.

With `O=C(O)c1ccc(F)c(F)c1Nc1ccc(I)cc1Cl` [ZAPNOMETINIB] the pIC50 [20] was 8.24.

Compound `O=C(N/N=C/c1cc(C(=O)O)c(Nc2ccc(I)cc2F)c(F)c1F)c1ccc(CO)o1` has a pIC50 [1] of 4.82, a pIC50 [2] of 7.00 and a pIC50 (Ephrin type-A receptor 2 [3]) of 5.52. It also gave a pIC50 [4] of 6.52, a pIC50 [22] of 5.40 and a pIC50 [23] of under 4.52. It also gave a pIC50 (Aurora kinase A) of 5.52, a pIC50 [6] of under 4.52 and a pIC50 [7] of 5.52. For the same compound, the pIC50 [8] was 5.70 and the pIC50 [9] was 5.30.

`CS(=O)(=O)c1ccc(CNCc2cc(C(=O)O)c(Nc3ccc(I)cc3F)c(F)c2F)cc1` showed a pIC50 [1] of under 4.52, a pIC50 [21] of under 4.52 and a pIC50 [2] of under 4.52. For the same compound, the pIC50 (Ephrin type-A receptor 2 [3]) was under 4.52, the pIC50 [4] was under 4.52 and the pIC50 [5] was under 4.52. It also gave a pIC50 [22] of 5.30, a pIC50 (Aurora kinase A) of 6.00 and a pIC50 [6] of under 4.52. It also gave a pIC50 [7] of 4.74, a pIC50 [8] of under 4.52 and a pIC50 [9] of under 4.52.
